Experiment [1] addresses D(3) dopamine receptor (Rattus norvegicus, UniProt P19020). The experiment can be described thus: Displacement of [3H]spiperone from rat D3 receptor expressed in HEK293 cells. The format is cell-based.
The species entered for a further experiment is Rattus norvegicus. The experiment can be described thus: Selectivity ratio for Ki for rat D2 receptor to Ki for rat D3 receptor.
Experiment [2] deals with D(2) dopamine receptor (Rattus norvegicus, UniProt P61169). The experiment can be described thus: Displacement of [3H]spiperone from rat D2 receptor expressed in HEK293 cells. The format is cell-based.
For experiment [3], the target named is T1, D(2) dopamine receptor (Homo sapiens, UniProt P14416). The experiment can be described thus: Agonist activity at human dopamine D2 receptor expressed in CHO cells assessed as stimulation of [35S]GTPgammaS binding relative to dopamine. In kind it is functional, cell-based.
The target in experiment [4] is T1, D(2) dopamine receptor. The experiment in a line: Agonist activity at human dopamine D2 receptor expressed in CHO cells assessed as stimulation of [35S]GTPgammaS binding. The format is functional, cell-based.
In experiment [5] the target is D(3) dopamine receptor (Homo sapiens, UniProt P35462). The experiment in a line: Agonist activity at human dopamine D3 receptor expressed in CHO cells assessed as stimulation of [35S]GTPgammaS binding. The format is functional, cell-based.
Another experiment is filed under the species Homo sapiens. The experiment in a line: Selectivity ratio of EC50 for human dopamine D2 receptor to EC50 for human dopamine D3 receptor.

Structures are written as SMILES.

T1 sequence (P14416 whole entry): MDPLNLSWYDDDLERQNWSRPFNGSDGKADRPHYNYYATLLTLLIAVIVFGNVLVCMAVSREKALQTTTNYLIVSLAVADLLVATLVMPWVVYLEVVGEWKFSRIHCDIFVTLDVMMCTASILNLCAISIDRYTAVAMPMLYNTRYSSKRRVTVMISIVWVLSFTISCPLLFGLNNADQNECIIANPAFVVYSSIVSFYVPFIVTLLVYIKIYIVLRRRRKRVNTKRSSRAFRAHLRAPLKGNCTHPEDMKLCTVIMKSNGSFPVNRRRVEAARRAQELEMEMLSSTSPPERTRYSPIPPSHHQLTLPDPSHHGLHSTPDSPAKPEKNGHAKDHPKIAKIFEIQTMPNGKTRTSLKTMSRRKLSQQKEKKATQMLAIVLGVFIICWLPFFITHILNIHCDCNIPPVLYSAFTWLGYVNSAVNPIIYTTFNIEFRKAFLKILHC
Sequence of D(2) dopamine receptor (Rattus norvegicus, UniProt P61169) (P61169 whole entry): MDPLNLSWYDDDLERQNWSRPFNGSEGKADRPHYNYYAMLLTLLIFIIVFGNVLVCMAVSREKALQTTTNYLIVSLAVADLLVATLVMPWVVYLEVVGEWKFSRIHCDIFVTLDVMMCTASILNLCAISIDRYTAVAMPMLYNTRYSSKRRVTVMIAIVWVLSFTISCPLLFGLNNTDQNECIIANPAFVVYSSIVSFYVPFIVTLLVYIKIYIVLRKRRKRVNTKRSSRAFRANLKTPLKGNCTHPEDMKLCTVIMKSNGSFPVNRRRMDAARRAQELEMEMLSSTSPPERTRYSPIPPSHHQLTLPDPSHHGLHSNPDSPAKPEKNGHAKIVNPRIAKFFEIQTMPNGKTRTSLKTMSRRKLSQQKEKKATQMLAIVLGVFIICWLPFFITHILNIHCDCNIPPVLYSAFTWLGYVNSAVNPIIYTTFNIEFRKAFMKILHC
Sequence of D(3) dopamine receptor (Rattus norvegicus, UniProt P19020) (P19020 whole entry): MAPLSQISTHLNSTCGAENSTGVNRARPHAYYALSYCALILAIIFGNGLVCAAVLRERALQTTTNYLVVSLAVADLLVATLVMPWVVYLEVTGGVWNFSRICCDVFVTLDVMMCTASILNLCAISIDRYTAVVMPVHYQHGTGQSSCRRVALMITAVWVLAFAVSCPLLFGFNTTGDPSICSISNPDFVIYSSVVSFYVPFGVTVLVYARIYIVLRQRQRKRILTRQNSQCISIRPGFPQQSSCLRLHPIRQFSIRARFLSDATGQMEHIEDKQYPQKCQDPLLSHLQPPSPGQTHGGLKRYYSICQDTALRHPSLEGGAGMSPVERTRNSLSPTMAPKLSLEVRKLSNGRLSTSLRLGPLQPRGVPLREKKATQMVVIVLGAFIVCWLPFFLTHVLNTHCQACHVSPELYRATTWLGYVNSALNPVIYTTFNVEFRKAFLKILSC
Sequence of D(3) dopamine receptor (Homo sapiens, UniProt P35462) (P35462 whole entry): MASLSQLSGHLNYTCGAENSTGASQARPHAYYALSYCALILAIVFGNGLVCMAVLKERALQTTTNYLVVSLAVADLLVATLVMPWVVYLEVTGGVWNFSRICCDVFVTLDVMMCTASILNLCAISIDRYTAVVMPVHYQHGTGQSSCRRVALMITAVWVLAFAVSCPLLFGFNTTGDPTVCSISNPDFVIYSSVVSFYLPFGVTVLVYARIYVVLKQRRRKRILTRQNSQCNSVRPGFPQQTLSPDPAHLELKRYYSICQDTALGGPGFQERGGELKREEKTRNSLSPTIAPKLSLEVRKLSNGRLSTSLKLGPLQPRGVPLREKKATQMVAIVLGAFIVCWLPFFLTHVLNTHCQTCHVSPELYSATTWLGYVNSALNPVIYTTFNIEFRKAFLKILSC

Consider `CCCN(CCN1CCN(c2ccc(-c3ccncc3)cc2)CC1)C1CCc2c(O)cccc2C1` (single isomer, unassigned; (-)), for which the Ki on D(3) dopamine receptor [1] worked out at 1.53 nM.

On to `CCCN(CCN1CCN(c2ccccn2)CC1)C1CCc2ccc(O)cc2C1` (configuration not stated), for which, in the experiment filed under Rattus norvegicus, the Ratio Ki amounted to 52.6. The values for the Ki at D(3) dopamine receptor [1] and at D(2) dopamine receptor [2] were 1.96 nM and 103 nM, respectively.

With `CCCN(CCN1CCN(c2ncccn2)CC1)C1CCc2ccc(O)cc2C1` (configuration not stated), the Ratio Ki in the experiment listed under Rattus norvegicus was determined as 24.1. Moreover, the Ki came out at 6.84 nM at D(3) dopamine receptor [1] and 165 nM at D(2) dopamine receptor [2].

Turning to `CCCN(CCN1CCN(c2ccncc2)CC1)C1CCc2ccc(O)cc2C1` (configuration not stated), the Ratio Ki in the experiment filed under Rattus norvegicus is 4.84. The Ki at D(3) dopamine receptor [1] turned out to be 14.1 nM; on D(2) dopamine receptor [2], 68.3 nM.

With `CCCN(CCN1CCN(c2ccc(-c3ccncc3)cc2)CC1)C1CCc2ccc(O)cc2C1` (stereo in doubt; 22d) [listing 1 of 2 here], in the experiment filed under Rattus norvegicus, the Ratio Ki came to 32.

As to `CCCN(CCN1CCN(c2ccc(-c3cccnc3)cc2)CC1)C1CCc2ccc(O)cc2C1` (racemic), the Ratio Ki in the experiment listed under Rattus norvegicus was found to be 19.6. The Ki turned out to be 3.01 nM on D(3) dopamine receptor [1] and 59.1 nM at D(2) dopamine receptor [2].

For the compound `CCCN(CCN1CCN(c2ccc(-c3ccncc3)cc2)CC1)C1CCc2ccc(O)cc2C1` (stereo in doubt; 22d) [listing 2 of 2 here], the Ki at D(2) dopamine receptor [2] came out at 24.7 nM.

As for `NCCc1ccc(O)c(O)c1`, the Emax at D(2) dopamine receptor [3] is 100%.

Regarding `CCCN(CCN1CCN(c2ccc(-c3ccccc3)cc2)CC1)C1CCc2ccc(O)cc2C1` (stereo in doubt; (+)-8a) [listing 1 of 2 here], the values for the EC50 at D(2) dopamine receptor [4] and at D(3) dopamine receptor [5] were 108 nM and 1.03 nM, respectively. Also, the Ki on D(3) dopamine receptor [1] was found to be 2.79 nM; on D(2) dopamine receptor [2], 58 nM.

As for `CCCN(CCN1CCN(c2cccnc2)CC1)C1CCc2ccc(O)cc2C1` (configuration not stated), the Ratio Ki in the experiment listed under Rattus norvegicus was found to be 7.51. The inhibition constant (Ki) on D(3) dopamine receptor [1] was determined as 2.89 nM; on D(2) dopamine receptor [2] it was 21.7 nM.

As for `CCCN(CCN1CCN(c2ccc(-c3ccccc3)cc2)CC1)C1CCc2c(O)cccc2C1` (single isomer, unassigned; (-)), in the experiment filed under Rattus norvegicus, the Ratio Ki came to 22.7. The EC50 is 52.6 nM on D(2) dopamine receptor [4] and 0.25 nM at D(3) dopamine receptor [5]. Besides, the results for the Ki on D(3) dopamine receptor [1] and at D(2) dopamine receptor [2] were 2.36 nM and 53.6 nM, respectively. Also, the Emax on D(2) dopamine receptor [3] was found to be 71.8%. Also, the Ratio EC50 in the experiment filed under Homo sapiens came out at 202.

For the compound `CCCN(CCN1CCN(c2ccc(-c3ccncc3)cc2)CC1)C1CCc2ccc(O)cc2C1` (single isomer, unassigned; (-)), the Ratio Ki in the experiment filed under Rattus norvegicus came to 24.6.

In the case of `CCCN(CCN1CCN(c2ccc(-c3ccccc3)cc2)CC1)C1CCc2ccc(O)cc2C1` (stereo in doubt; (+)-8a) [listing 2 of 2 here], the Ratio Ki in the experiment listed under Rattus norvegicus was 20.8. Also, the maximal response (Emax) at D(2) dopamine receptor [3] turned out to be 42.1%. Further, in the experiment listed under Homo sapiens, the Ratio EC50 came out at 105.

For `CCCN(CCN1CCN(c2nccc3ccccc23)CC1)[C@H]1CCc2nc(N)sc2C1`, the Ratio Ki in the experiment listed under Rattus norvegicus turned out to be 121.

For the compound `CCCN(CCN1CCN(c2ccc(I)cc2)CC1)C1CCc2ccc(O)cc2C1` (configuration not stated), the Ratio Ki in the experiment filed under Rattus norvegicus was determined as 6.06. For the same compound, the figures for the Ki on D(3) dopamine receptor [1] and on D(2) dopamine receptor [2] were 7.66 nM and 46.4 nM, respectively.

Regarding `CCCN(CCN1CCN(c2ccc(-c3ccccc3)cc2)CC1)C1CCc2ccc(O)cc2C1` (stereo in doubt; 8a), the Ki on D(3) dopamine receptor [1] came to 5.22 nM; on D(2) dopamine receptor [2] it was 64.1 nM.

`CCCN(CCC)CCc1cccc2c1CC(=O)N2` [ROPINIROLE]: at D(2) dopamine receptor [3], the Emax was 83.9%. In addition, on D(2) dopamine receptor [2], the Ki stood at 2670 nM.

The values above are taken from ChEMBL document CHEMBL1250455, “Further delineation of hydrophobic binding sites in dopamine D(2)/D(3) receptors for N-4 substituents on the piperazine ring of the hybrid template 5/7-{[2-(4-aryl-piperazin-1-yl)-ethyl]-propyl-amino}-5,6,7,8-tetrahydro-naphthalen-2-ol” (Bioorg Med Chem, 2010).
